According to patent publication US20240424115A1, “LONG-ACTING INTERLEUKIN-15 RECEPTOR AGONISTS AND RELATED IMMUNOTHERAPEUTIC COMPOSITIONS AND METHODS” (Nektar Therapeutics, priority 2017, published 2024):

Legend:
CT-26 cells = assay: CT-26 lung metastasis model; conditions: for lung nodule inhibition: Example 19, one week apart
Method: At day 0, 6-8 week-old female Balb/c mice were inoculated with 1×10^5 mouse CT-26 cells by tail vein injection. On day 1, post 24 h of CT-26 cells being administered, mice were divided into ten groups. […] Each group was assigned one intervention as follows: vehicle, phosphate buffered saline (Group A); native IL-15 alone (Group B); Conjugate 2 at a dose of 0.03 mg/kg (Group C); Conjugate 2 at a dose of 0.1 mg/kg (Group D); Conjugate 2 at a dose of 0.3 mg/kg (Group E); Conjugate 2 at a dose of 1.0 mg/kg (Group F); Conjugate 2 at a dose of 3.0 mg/kg (Group G); for Conjugate 1: vehicle, phosphate buffered saline (Group H); Conjugate 1 at a dose of 0.03 mg/kg (Group I) and Conjugate 1 at a dose of 0.3 mg/kg (Group J). Animals were dosed at days 1, 5, and 10.
Post 13 days from the date of CT-26 tumor cells administration, mice were anesthetized, and blood and spleen cells were collected for further analysis of immunophenotype markers, while lungs were fixed for 24-48 h in Bouins solution containing picric acid and formaldehyde.
The number of lung tumor nodules were counted under a dissection per each lung and mean of lung nodules for each group was determined. The statistical significance was also obtained between the vehicle group vs intervention groups using unpaired students t test.
Balb/c mice received tail vein injection of 1×10^5 CT-26 colorectal carcinoma cells. The following day, mice (n=9/group) were treated weekly, twice, with Conjugate 1 (0.03 or 0.3 mg/kg) or vehicle control. Five days after the second injection, mice were humanely sacrificed and lung nodules were counted.
CT-26 mice (n=7-11/group) were injected with anti-asialo GM1 to deplete NK cells or two different controls (lgG or PBS), then injected with 1×10^5 CT-26 tumor cells. Mice were then treated with Conjugate 2 at 0.3 mg/kg dosed on days 1, 5 and 10 post tumor cell injection or vehicle control. Mice were sacrificed and lung nodules were counted three days after the last day of treatment.

[1] = Single dose PK study in rats (plasma concentration); format: in vivo; conditions: Sprague Dawley rats, single i.v. 10, 75 and 150 μg/kg
Method: Following administration, blood was collected at days 1-7 post administration (with multiple samples collected over the first 24 hours following administration). […]

CD4, CD8, and NK cells = assay: In vivo IL-15 signaling (STAT5 phosphorylation in lymphocytes) in non-human primates; set-up: species or system cynomolgus monkeys; conditions: NHP
Method: In the study, cynomolgus monkeys (cyno), one female and one male, were each intravenously administered a single dose of Conjugate 2 (0.5 mg/kg). A series of blood samples were taken from each animal both prior to treatment (day-6 and-1) and at multiple intervals following treatment for assessment by flow cytometry of STAT5 phosphorylation in various types of lymphocytes (CD4, CD8, and NK cells). Results are provided in FIGS. 9A (CD4), 9B (CD8), and 9C (NK).
(§1) Cynomolgus monkeys (n=3-4 males), were administered a single intravenous injection of Conjugate 1 at 0.003, 0.01, 0.1 mg/kg or a vehicle control. Blood samples were collected at the indicated time points pre and post dose (−5, −2, 1, 2, 3, 4, 5, 6, 7, 10, 14, 17 days) and subjected to flow cytometric analysis to examine pharmacodynamic effects within lymphocyte populations. Proliferation (% Ki-67) and JAK/STAT signaling (% pSTAT5) for NK cells, CD8 T cells, and CD4 T cells were examined, with the results shown in FIGS. 45A-C and FIGS. 46A-C, respectively.

[2] = PK (MRT) of long-acting IL-15 receptor agonists (Table 2B); format: in vivo; conditions: species not stated
[3] = tested on: NK cells, CD8 T cells, CD4 T cells; assay: In vivo PD study in non-human primates: lymphocyte cell numbers and proliferation; set-up: species or system cynomolgus monkeys
Method: In the study, cynomolgus monkeys, one female and one male, were administered 500 μg/kg of Conjugate 2 intravenously. A series of blood samples were taken from each animal before treatment (day-6 and -1) and at multiple intervals following single dose treatment for assessment by flow cytometry of lymphocyte cell numbers (NK cells, CD8 T-cells, etc.) and activation.
NK cell counts were determined to assess the ability of exemplary Conjugate 2 to induce sustained NK cell proliferation in non-human primates; results are shown in FIGS. 16A and 16B. NK cells and their proliferation in blood from cynomolgus monkey were identified by flow cytometry. Acquisition and analysis of NK cells (CD45+ CD3− CD16+) and their proliferation status (CD45+CD3−CD16+ Ki67+) were conducted using BD FACS DIVA software. Absolute values for NK cells and proliferating NK cells were used to calculate % Ki67 positivity within the NK population. Pre and post-treatment values were plotted using Prism.
CD8 T cell counts were also determined as illustrated in FIG. 17 for each animal from pre-dose to 14 days post-administration. Specifically, CD8 T cells were defined as CD45+CD3+CD4−CD8+. Blood from the monkeys was also subject to immunophenotyping as previously described. In monkey, CD8 T cells increased in a sustained manner, an effect lasting for at least 10 days. This plot further exemplifies the ability of an exemplary long acting IL-15 receptor agonist, Conjugate 2, to induce proliferation and sustained increases in numbers of CD8 T-cells post-administration.
In monkey, CD8 TEM cells were defined as CD45+CD3+CD4−CD8+CD45Ra−CD197− and CD8 Tcm were defined as CD45+CD3+CD4−CD8+CD45Ra−CD197+. Immunophenotyping was conducted by flow cytometry with sample acquisition on DIVA software and data analysis on Flowjo software. Graphs were plotted using Prism. […] The figures indicate that both CD8 effector and central memory T cell populations proliferate in response to exemplary Conjugate 2.
In this study, cynomolgus monkeys (cyno), one female and one male, were each intravenously administered a single dose of Conjugate 1 (0.1 mg/kg). A series of blood samples were taken from each animal over a 14-day time course and subjected to flow cytometry analysis of various lymphocytes (CD8 T cells, Ki-67 percent positivity within total CD8, CD8 central memory T cells (TCM) and CD8 effector memory T cells (Tem), NK cells and Ki-67 percent positivity of NK cells).
as §1
In cynomolgus monkey, CD8 naïve and memory subpopulations were defined by CD45Ra, CD197 and CD95. […] Within the CD8 Tem, […] and Tscm populations, Conjugate 1 induced robust % Ki-67 expression in a dose dependent manner with detectable increases in proliferation marker positivity starting as early as day 2, reaching a maximum at day 5 and returning to baseline between days 10-14. The Ki-67 expression and kinetics within the CD8 populations support the sustained increase in CD8 T cell numbers shown in Example 27 and FIGS. 47A-D.

[4] = cynomolgus monkey, each dose level, vs vehicle

mono-mPEG-SBA40K-IL-15 [Conjugate 1]
survival (CT-26 cells; 0.3 mg/kg, followed 32 days post tumor cell injection, vs vehicle): increased survival significantly | reduction in lung metastases in comparison to vehicle (CT-26 cells; Example 13, i.v. days 1, 5, 10, dose not stated): 85% | lung nodule inhibition (CT-26 cells; 0.03 mg/kg dosed twice): 40% | lung nodule inhibition (CT-26 cells; 0.3 mg/kg dosed twice): 80% | half-life [1]: approximately 18 hours | pSTAT5 in CD8 T cells (CD4, CD8, and NK cells; 0.1 and 0.01 mg/kg): dose-dependent increase in pSTAT5 | dose level at which increase in % pSTAT5 in NK cells can be detected (CD4, CD8, and NK cells; single i.v.): 0.001 mg/kg | PK (MRT) [2]: 21 h | time NK cell numbers were sustained ([3]; NHP, 0.1 and 0.01 mg/kg): up to 14 days | CD4 T cell numbers, % Ki-67 and % pSTAT5 ([3]; NHP, highest dose level 0.1 mg/kg): induced a small increase in CD4 T cell numbers, % Ki-67 and % pSTAT5 | day of maximal total CD8 T cell numbers ([3]; NHP, single i.v.): ~5 days | dose at which % Ki-67 positivity in CD8 T cells is detectable ([3]; NHP, single i.v.): 10 µg/kg | dose at which effect on total CD8 cell numbers can be detected ([3]; NHP, single i.v.): 3 µg/kg | dose level at which a significant increase in % Ki-67 in NK cells can be detected ([3]; NHP, single i.v.): 1 µg/kg | first detectable increase in % Ki-67 in CD8 Tem, Tcm and Tscm ([3]; NHP, single i.v.): 2 days | lowest dose level yielding a significant increase in NK cells ([3]; NHP, single i.v.): 10 µg/kg | maximum of % Ki-67 in CD8 Tem, Tcm and Tscm ([3]; NHP, single i.v.): 5 days | return of % Ki-67 in CD8 Tem, Tcm and Tscm to baseline ([3]; NHP, single i.v.): 10 to 14 days | time Ki-67 expression in NK cells can be sustained ([3]; NHP, single i.v.): up to 14 days | time increase in total CD8 T cells is sustained ([3]; NHP, single i.v.): over seven | time of maximum NK cell numbers after dosing ([3]; NHP, single i.v.): five | increase in CD8 T cell numbers ([3]; cyno, single i.v. 0.1 mg/kg): 7-10 X | increase in CD8 Tcm numbers ([3]; cyno, single i.v. 0.1 mg/kg): 27-30 X | increase in CD8 Tem numbers ([3]; cyno, single i.v. 0.1 mg/kg): 21-33 X | increase in NK cells ([3]; cyno, single i.v. 0.1 mg/kg): 9-10 X | time increase in CD8 T cell numbers was sustained [3, 4]: at least 10 days | time increase in NK cell numbers was sustained [3, 4]: at least 14 days
